Laboratory results taken from patent EP0326490B2, “Synthetic peptides and mixtures thereof for detecting HIV antibodies” (ADALTIS INC., priority 1988, dated 2004).
Positions of bridges follow the written chain, without caps; N, C: chain ends. Residues, ends and D or L forms follow the SMILES beside them. No end group written: not given here.

Columns and labels:
HIV-1 positive sera [1] = assay: ELISA, single peptides identifying HIV-1 positive sera; format: binding, human; settings: single gp41 or gp120 peptide
Protocol: According to this test a peptide or a peptide mixture of the present invention is adsorbed onto the wells of a microtiter plate. The wells are then treated with sera to be tested. After washing, anti-human IgG labeled with peroxidase is added to the wells. The determination of the peroxidase is performed with a corresponding substrate, e.g. with o-phenylene diamine. Also in this procedure the peroxidase can be exchanged by another label, e.g. by a radioactive or fluorescence label.
Each well of the microtiter plate is saturated with 100 µl of a solution containing a peptide or mixture of peptides (5 µg/ml) and left overnight. The wells are emptied and washed twice with a washing buffer (Tris, 0.043M; NaCl, 0.5M;thimerosal, 0.01% w/v; Tween 20, 0.05% v/v; pH 7.4). The wells are then saturated with […] of washing buffer for 1 hr. at 37°C and washed once with the same buffer. Serum samples to be analyzed are diluted with specimen buffer (washing buffer plus casein, 0.05% w/v). The bells are rinsed with washing buffer prior to the addition of the diluted serum sample (0.1 ml). These are left to incubate for 1 hr. at room temperature. The wells are then emptied, washed twice rapidly and then once for two minutes with washing buffer. […] The wells are then emptied and washed twice rapidly with washing buffer and then five times in which the buffer was in contact with the well 2 minutes per washing. The substrate solution (3,3', 5,5'-tetramethylbenzidine, 8 mg per ml of DMSO) is diluted with 100 volumes 0.1 M citrate-acetate buffer, pH 5.6 containing 0.1% v/v of 30% H2O2 and added to each well (0.1 ml per well). After 10 minutes the contents of each well is treated with 0.1 ml 2N H2SO4 and the optical density read at 450 nm. All determinations are done in duplicate.

HIV-1 positive sera [2] = settings: cited from earlier work; for HIV-1 positive sera reacting of sera tested: J. Virol. 61, 2639-2641, 1987
[3] = Stability of linear and cyclic peptide in coating buffers (HPLC, Ellman's test); format: physicochemical
Source text: Even though results presented in TABLE 5 clearly show the superiority of cyclic peptides over their linear counterpart in detecting HIV-1-antibodies, that increased sensitivity could have been underestimated because of probable cyclization and polymerization of the linear peptide after solubilization in a carbonate buffer (pH 9.6). That experiment was repeated with the linear 87 and cyclic 87c peptides dissolved in a carbonate buffer (pH 9.6) as before and also in 10% acetic acid (pH 2.7). […] It is believed that cyclization and polymerization also occured in the wells of the microtiter plates although the exact proportion of cyclic peptide bound to the plates versus linear has not been as yet determined.

Compound: 88: cyclic peptide, amino acid positions 590-620 of gp41-HIV-1 (QQLLGIWGCSGKLICTTAVPWNASWSNKSLE; disulfide 9-15 (inferred); UniProt P04578 590-620, looked up, fragment) [Peptide 88]
- % Positive Sera correctly Idenfitied (HIV-1 positive sera [1]): 100%

Compound: 12-amino acid sequence (600-611): 12-amino acid sequence (600-611) from gp41-(HIV-1), Gnann et al. (GKLICTTAVPWN; Transmembrane protein gp41; UniProt P04578 600-611, looked up, fragment)
- HIV-1 infected patients reactive of patients tested (HIV-1 positive sera [2]; Gnann et al., J. Infect. Dis. 156, 261-267, 1987, patients from the United States): 131 out of 132
- HIV-1 positive sera reacting of sera tested (HIV-1 positive sera [2]; Gnann et al.): 22 out of 22
- positive sera detected of sera tested (HIV-1 positive sera [2]; tests at the Centers for Disease Control, Atlanta): 78 out of 79

Compound: SGKLIC
- HIV-1 positive sera reacting of sera tested (HIV-1 positive sera [2]; Gnann et al.): not immunoreactive with any of the 22 HIV-1 positive sera tested

Compound: SGKLICTTAVPWNAS [short synthetic peptide covering residues 606 to 620 of gp41 (HIV-1)]
- specificity (samples correctly identified of samples tested) (HIV-1 positive sera [2]; US Patent Appl. No. 120,027): 63/63
- sensitivity (HIV-1 positive sera [2]; prior-art reports, HIV-1 seropositive samples): 89%

Compound: 96: cyclic peptide, amino acid positions 604-629 of gp41-HIV-1 (CTTAVPWNASWSNKSLEQIWNHTTWM; also: cyclic peptide, ring not given here; UniProt P04578 604-629, looked up, fragment) [Peptide 96]
- % Positive Sera correctly Idenfitied (HIV-1 positive sera [1]): 100%

Compound: CC[C@H](C)[C@H](NC(=O)CNC(=O)[C@H](CC(C)C)NC(=O)[C@H](CC(C)C)NC(=O)[C@H](CCC(N)=O)NC(=O)[C@H](CCC(N)=O)NC(=O)[C@H](CC(=O)O)NC(=O)[C@H](CCCCN)NC(=O)[C@H](CC(C)C)NC(=O)[C@H](Cc1ccc(O)cc1)NC(=O)[C@H](CCCNC(=N)N)NC(=O)[C@H](CCC(=O)O)NC(=O)[C@@H](NC(=O)[C@H](C)NC(=O)[C@H](CC(C)C)NC(=O)[C@@H](NC(=O)[C@@H](N)CCCNC(=N)N)[C@@H](C)CC)C(C)C)C(=O)N[C@@H](Cc1c[nH]c2ccccc12)C(=O)NCC(=O)N[C@@H](CS)C(=O)N[C@@H](CO)C(=O)NCC(=O)N[C@@H](CCCCN)C(=O)N[C@@H](CC(C)C)C(=O)N[C@H](C(=O)N[C@@H](CS)C(=O)N[C@H](C(=O)N[C@H](C(=O)N[C@@H](C)C(=O)N[C@H](C(=O)N1CCC[C@H]1C(=O)N[C@@H](Cc1c[nH]c2ccccc12)C(=O)N[C@@H](CC(N)=O)C(=O)N[C@@H](C)C(=O)N[C@@H](CO)C(=O)O)C(C)C)[C@@H](C)O)[C@@H](C)O)[C@@H](C)CC [Peptide 87] (H-RILAVERYLKDQQLLGIWGCSGKLICTTAVPWNAS-OH)
- stability in solution (HPLC, Ellman's test) ([3]; 10% acetic acid (pH 2.7)): remained linear
- stability in solution (HPLC analysis) ([3]; carbonate buffer (pH 9.6), room temperature): underwent cyclization and polymerization

Compound: H-CGKIEPLGVAPTKAKRRVVQREKR-OH [Peptide 71]
- % Positive Sera correctly Idenfitied (HIV-1 positive sera [1]): 83%
